Read-outs that look alike come from different tables or passages of the source. Where a SMILES comes first, the peptide text is derived from it. Bridges are numbered along the chain shown (N, C = ends). Where no end group is shown, it is not given here. Side-chain parts run from the residue outwards. [ ]: non-standard residue; d: D form. The star is where a group is joined. Ac‑Cys(PEG 40 kDa) = Cys whose alpha-amino group is acetylated and whose side chain carries a 40 kDa PEG; PEG 40 kDa = PEG (40 kDa) covalently attached to Cys; Palmitoyl = CCCCCCCCCCCCCCCC(=O)*; Nle = CCCC[C@H](N)C(=O)O; Aib = CC(C)(N)C(=O)O; Bz = O=C(c1ccccc1)*
Legend:
Assay type in all cases: cell-based
glucagon receptor = target: T1, glucagon receptor (Homo sapiens, UniProt P47871); experiment: cAMP synthesis functional assay (firefly luciferase reporter in HEK293 cells), glucagon receptor
T1 construct: expressed in transfected cells; host or cells: HEK293
T1 sequence (P47871 26-477): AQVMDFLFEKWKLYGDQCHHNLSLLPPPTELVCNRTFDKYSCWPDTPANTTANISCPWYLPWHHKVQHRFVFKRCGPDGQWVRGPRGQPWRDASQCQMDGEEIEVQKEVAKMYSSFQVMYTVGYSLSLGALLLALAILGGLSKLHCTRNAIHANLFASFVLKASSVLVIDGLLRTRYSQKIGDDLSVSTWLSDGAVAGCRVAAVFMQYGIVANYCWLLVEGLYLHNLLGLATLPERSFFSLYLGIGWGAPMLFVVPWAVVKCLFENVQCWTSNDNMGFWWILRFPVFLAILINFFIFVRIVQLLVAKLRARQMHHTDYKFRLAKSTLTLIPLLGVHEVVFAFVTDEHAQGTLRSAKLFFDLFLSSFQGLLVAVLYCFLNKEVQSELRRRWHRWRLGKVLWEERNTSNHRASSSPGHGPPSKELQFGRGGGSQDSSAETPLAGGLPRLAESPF

GIP receptor = target: T2, GIP receptor (Homo sapiens, UniProt P48546); experiment: cAMP synthesis functional assay (firefly luciferase reporter in HEK293 cells), GIP receptor
T2 construct: expressed in transfected cells; host or cells: HEK293
T2 sequence (P48546 22-466): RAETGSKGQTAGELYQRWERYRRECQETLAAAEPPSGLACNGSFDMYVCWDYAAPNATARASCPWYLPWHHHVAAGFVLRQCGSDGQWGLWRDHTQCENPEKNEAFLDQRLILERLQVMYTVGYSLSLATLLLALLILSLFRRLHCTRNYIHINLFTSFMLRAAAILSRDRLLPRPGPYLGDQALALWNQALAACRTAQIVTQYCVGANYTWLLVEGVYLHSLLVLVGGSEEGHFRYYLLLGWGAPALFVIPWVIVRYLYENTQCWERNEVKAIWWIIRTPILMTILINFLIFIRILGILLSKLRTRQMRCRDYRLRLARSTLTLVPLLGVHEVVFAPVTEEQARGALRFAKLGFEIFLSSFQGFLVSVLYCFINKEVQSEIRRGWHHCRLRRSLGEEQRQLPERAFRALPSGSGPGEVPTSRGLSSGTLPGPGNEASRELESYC

GLP-1 receptor = target: T3, GLP-1 receptor (Homo sapiens, UniProt P43220); experiment: cAMP synthesis functional assay (firefly luciferase reporter in HEK293 cells), GLP-1 receptor
T3 construct: expressed in transfected cells; host or cells: HEK293
T3 sequence (P43220 24-463, species assumed): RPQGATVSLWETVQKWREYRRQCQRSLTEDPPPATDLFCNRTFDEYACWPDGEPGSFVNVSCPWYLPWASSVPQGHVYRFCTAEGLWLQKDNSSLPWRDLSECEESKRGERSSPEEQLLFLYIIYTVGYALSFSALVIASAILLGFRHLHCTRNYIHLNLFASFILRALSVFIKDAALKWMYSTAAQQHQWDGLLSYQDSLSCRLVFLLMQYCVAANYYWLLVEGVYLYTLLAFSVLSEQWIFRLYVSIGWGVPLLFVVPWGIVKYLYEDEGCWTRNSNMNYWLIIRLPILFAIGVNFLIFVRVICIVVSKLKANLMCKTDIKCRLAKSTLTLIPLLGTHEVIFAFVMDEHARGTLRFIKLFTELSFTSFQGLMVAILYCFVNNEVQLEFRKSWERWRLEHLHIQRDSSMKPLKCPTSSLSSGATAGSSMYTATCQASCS

[1] = Table 1, relative to the native hormone of the indicated receptor
[2] = Table 4, relative to the native hormone
[3] = relative to the standard (Std.) EC50 of the same run

Compound	Glucagon Receptor relative activity (glucagon receptor; [1])	GIP Receptor relative activity (GIP receptor; [1])	GLP-1 Receptor relative activity (GLP-1 receptor; [1])	also measured
CC[C@H](C)[C@H](NC(=O)[C@H](CO)NC(=O)[C@H](Cc1ccc(O)cc1)NC(=O)[C@H](CC(=O)O)NC(=O)[C@H](CO)NC(=O)[C@@H](NC(=O)[C@H](Cc1ccccc1)NC(=O)[C@@H](NC(=O)CNC(=O)[C@H](CCC(N)=O)NC(=O)[C@H](CO)NC(=O)CNC(=O)c1ccccc1)[C@@H](C)O)[C@@H](C)O)C(=O)N[C@@H](Cc1ccc(O)cc1)C(=O)N[C@@H](CC(C)C)C(=O)N[C@@H](CC(=O)O)C(=O)N[C@H]1CCC(=O)NCCCC[C@@H](C(=O)N[C@@H](CCC(=O)O)C(=O)N[C@@H](Cc2ccccc2)C(=O)N[C@H](C(=O)N[C@@H](CC(N)=O)C(=O)N[C@@H](Cc2c[nH]c3ccccc23)C(=O)N[C@@H](CC(C)C)C(=O)N[C@@H](CC(C)C)C(=O)N[C@@H](C)C(=O)NCC(=O)NCC(=O)N2CCC[C@H]2C(=O)N[C@@H](CO)C(=O)N[C@@H](CO)C(=O)NCC(=O)N[C@@H](C)C(=O)N2CCC[C@H]2C(=O)N2CCC[C@H]2C(=O)N2CCC[C@H]2C(=O)N[C@@H](CO)C(N)=O)C(C)C)NC(=O)[C@H](C)NC(=O)[C@H](C)NC(=O)[C@H](CCC(N)=O)NC1=O [mt-154] (Bz-GSQGTFTSDYSIYLDEQAAKEFVNWLLAGGPSSGAPPPS-NH2; lactam 16-20)	7.40%	1.07%	0.70%	–
CC[C@H](C)[C@H](NC(=O)[C@H](Cc1ccccc1)NC(=O)[C@H](CCC(=O)O)NC(=O)[C@@H]1CCCCNC(=O)CC[C@H](NC(=O)[C@H](CC(=O)O)NC(=O)[C@H](CC(C)C)NC(=O)[C@H](C)NC(=O)[C@H](CCCCN)NC(=O)[C@H](CO)NC(=O)[C@H](Cc2ccc(O)cc2)NC(=O)[C@H](CC(=O)O)NC(=O)[C@H](CO)NC(=O)[C@@H](NC(=O)[C@H](Cc2ccccc2)NC(=O)[C@@H](NC(=O)CNC(=O)[C@H](CCC(N)=O)NC(=O)[C@H](CO)NC(=O)[C@@H](N)Cc2c[nH]cn2)[C@@H](C)O)[C@@H](C)CC)C(=O)N[C@@H]([C@@H](C)CC)C(=O)N[C@@H](Cc2c[nH]cn2)C(=O)N[C@@H](CCC(N)=O)C(=O)N1)C(=O)N[C@@H](C)C(=O)N[C@@H](Cc1c[nH]c2ccccc12)C(=O)N[C@@H](CC(C)C)C(=O)N[C@@H](CCSC)C(=O)N[C@@H](CC(N)=O)C(=O)N[C@H](C(N)=O)[C@@H](C)O [mt-108] (H-HSQGTFISDYSKALDEIHQKEFIAWLMNT-NH2; lactam 16-20; N-terminus assumed)	68.42%	0.52%	12.50%	–
mt-225: pegylated monomer with lactam bridge between Glu16 and Lys20, PEG attached via dipeptide spacer (Y[Aib]QGTFTSDYSIYLDEQAAKEFVNWLLAGGPSSGAPPPSK([Ala-Ac‑Cys(PEG 40 kDa)])-NH2; lactam 16-20)	–	–	–	Glucagon Receptor relative activity (glucagon receptor; [2]): 1.99%; GIP Receptor relative activity (GIP receptor; [2]): 0.90%; GLP-1 Receptor relative activity (GLP-1 receptor; [2]): 29.59%
CC[C@H](C)[C@H](NC(=O)[C@H](CO)NC(=O)[C@H](Cc1ccc(O)cc1)NC(=O)[C@H](CC(=O)O)NC(=O)[C@H](CO)NC(=O)[C@@H](NC(=O)[C@H](Cc1ccccc1)NC(=O)[C@@H](NC(=O)CNC(=O)[C@H](CCC(N)=O)NC(=O)[C@H](CO)NC(=O)[C@@H](N)Cc1ccc(O)cc1)[C@@H](C)O)[C@@H](C)O)C(=O)N[C@@H](Cc1ccc(O)cc1)C(=O)N[C@@H](CC(C)C)C(=O)N[C@@H](CC(=O)O)C(=O)N[C@@H](CCC(=O)O)C(=O)N[C@H]1CCC(=O)NCCCC[C@@H](C(=O)N[C@@H](CCC(=O)O)C(=O)N[C@@H](Cc2ccccc2)C(=O)N[C@H](C(=O)N[C@@H](CC(N)=O)C(=O)N[C@@H](Cc2c[nH]c3ccccc23)C(=O)N[C@@H](CC(C)C)C(=O)N[C@@H](CC(C)C)C(=O)N[C@@H](C)C(=O)NCC(=O)NCC(=O)N2CCC[C@H]2C(=O)N[C@@H](CO)C(=O)N[C@@H](CO)C(=O)NCC(=O)N[C@@H](C)C(=O)N2CCC[C@H]2C(=O)N2CCC[C@H]2C(=O)N2CCC[C@H]2C(=O)N[C@@H](CO)C(N)=O)C(C)C)NC(=O)[C@H](C)NC(=O)[C@H](C)NC1=O [mt-167] (H-YSQGTFTSDYSIYLDEEAAKEFVNWLLAGGPSSGAPPPS-NH2; lactam 17-20; N-terminus assumed)	34.53%	5.01%	7.94%	–
mt-203: glucagon analog peptide, C-terminal amide (Y[Aib]QGTFTSDYSIYLDEQAAKEFVNWL[Nle]AGGPSSGAPPPSC(PEG 40 kDa)-NH2; lactam 16-20)	1.38%	0.24%	20.71%	EC50 (glucagon receptor; read-out: Glucagon Receptor EC50, Table 1): 4.84 nM; EC50 (GIP receptor; read-out: GIP Receptor EC50, Table 1): 12.2 nM; EC50 (GLP-1 receptor; read-out: GLP-1 Receptor EC50, Table 1): 0.14 nM
CCCCCCCCCCCCCCCC(=O)NCCCC[C@H](NC(=O)[C@H](CC(=O)O)NC(=O)[C@H](CO)NC(=O)[C@@H](NC(=O)[C@H](Cc1ccccc1)NC(=O)[C@@H](NC(=O)CNC(=O)[C@H](CCC(=O)O)NC(=O)C(C)(C)NC(=O)[C@@H](N)Cc1ccc(O)cc1)[C@@H](C)O)[C@@H](C)O)C(=O)N[C@@H](CO)C(=O)N[C@H](C(=O)N[C@@H](Cc1ccc(O)cc1)C(=O)N[C@@H](CC(C)C)C(=O)N[C@@H](CC(=O)O)C(=O)N[C@@H](CCCCN)C(=O)N[C@@H](CCC(N)=O)C(=O)N[C@@H](C)C(=O)N[C@@H](C)C(=O)NC(C)(C)C(=O)N[C@@H](CCC(=O)O)C(=O)N[C@@H](Cc1ccccc1)C(=O)N[C@H](C(=O)N[C@@H](CC(N)=O)C(=O)N[C@@H](Cc1c[nH]c2ccccc12)C(=O)N[C@@H](CC(C)C)C(=O)N[C@@H](CC(C)C)C(=O)N[C@@H](C)C(=O)NCC(=O)NCC(=O)N1CCC[C@H]1C(=O)N[C@@H](CO)C(=O)N[C@@H](CO)C(=O)NCC(=O)N[C@@H](C)C(=O)N1CCC[C@H]1C(=O)N1CCC[C@H]1C(=O)N1CCC[C@H]1C(=O)N[C@@H](CO)C(N)=O)C(C)C)[C@@H](C)CC [mt-270] (H-Y[Aib]EGTFTSDK(Palmitoyl)SIYLDKQAA[Aib]EFVNWLLAGGPSSGAPPPS-NH2; N-terminus assumed)	–	–	–	EC50 (glucagon receptor; Glucagon Receptor EC50, cAMP luciferase reporter assay as in Example 16): 306 nM; Glucagon Receptor relative activity (glucagon receptor; [3]): 0.06%; EC50 (GIP receptor; GIP Receptor EC50, cAMP luciferase reporter assay as in Example 16): 0.0049 nM; GIP Receptor relative activity (GIP receptor; [3]): 163.27%; EC50 (GLP-1 receptor; GLP-1 Receptor EC50, cAMP luciferase reporter assay as in Example 16): 0.0093 nM; GLP-1 Receptor relative activity (GLP-1 receptor; [3]): 211.83%
CC(C)C[C@H](NC(=O)[C@H](CC(C)C)NC(=O)[C@H](Cc1c[nH]c2ccccc12)NC(=O)[C@H](CC(N)=O)NC(=O)[C@@H](NC(=O)[C@H](Cc1ccccc1)NC(=O)[C@H](CCC(=O)O)NC(=O)[C@@H]1CCCCNC(=O)CC[C@H](NC(=O)[C@H](CC(=O)O)NC(=O)[C@H](CC(C)C)NC(=O)[C@H](Cc2ccc(O)cc2)NC(=O)[C@H](CCCCN)NC(=O)[C@H](CO)NC(=O)[C@H](Cc2ccc(O)cc2)NC(=O)[C@H](CC(=O)O)NC(=O)[C@H](CO)NC(=O)[C@@H](NC(=O)[C@H](Cc2ccccc2)NC(=O)[C@@H](NC(=O)CNC(=O)[C@H](CCC(N)=O)NC(=O)[C@H](CO)NC(=O)[C@@H](N)Cc2ccc(O)cc2)[C@@H](C)O)[C@@H](C)O)C(=O)N[C@@H](CCCNC(=N)N)C(=O)N[C@@H](CCCNC(=N)N)C(=O)N[C@@H](C)C(=O)N1)C(C)C)C(=O)N[C@@H](C)C(=O)NCC(=O)NCC(=O)N1CCC[C@H]1C(=O)N[C@@H](CO)C(=O)N[C@@H](CO)C(=O)NCC(=O)N[C@@H](C)C(=O)N1CCC[C@H]1C(=O)N1CCC[C@H]1C(=O)N1CCC[C@H]1C(=O)N[C@@H](CO)C(N)=O [mt-143] (H-YSQGTFTSDYSKYLDERRAKEFVNWLLAGGPSSGAPPPS-NH2; lactam 16-20; N-terminus assumed)	496.51%	1.82%	4.53%	–
CC[C@H](C)[C@H](NC(=O)[C@H](CO)NC(=O)[C@H](Cc1ccc(O)cc1)NC(=O)[C@H](CC(=O)O)NC(=O)[C@H](CO)NC(=O)[C@@H](NC(=O)[C@H](Cc1ccccc1)NC(=O)[C@@H](NC(=O)CNC(=O)[C@H](CCC(N)=O)NC(=O)[C@H](CO)NC(=O)[C@@H](N)Cc1ccc(O)cc1)[C@@H](C)O)[C@@H](C)O)C(=O)N[C@@H](Cc1ccc(O)cc1)C(=O)N[C@@H](CC(C)C)C(=O)N[C@@H](CC(=O)O)C(=O)N[C@H]1CCC(=O)NCCCC[C@@H](C(=O)N[C@@H](CCC(=O)O)C(=O)N[C@@H](Cc2ccccc2)C(=O)N[C@H](C(=O)N[C@@H](CC(N)=O)C(=O)N[C@@H](Cc2c[nH]c3ccccc23)C(=O)N[C@@H](CC(C)C)C(=O)N[C@@H](CC(C)C)C(=O)N[C@@H](C)C(=O)NCC(N)=O)C(C)C)NC(=O)[C@H](C)NC(=O)[C@H](C)NC(=O)[C@H](CCC(N)=O)NC1=O [mt-163] (H-YSQGTFTSDYSIYLDEQAAKEFVNWLLAG-NH2; lactam 16-20; N-terminus assumed)	251.85%	4.73%	30.00%	EC50 (GLP-1 receptor; GLP-1 Receptor EC50, nM, Table 1): 0.04 nM

— patent US9062124B2, “GIP-based mixed agonists for treatment of metabolic disorders and obesity” (priority 2008, dated 2015)
